# Reference: US20130079309A1, “Method Of Treating Acute Lung Injury Using Sphingosine 1 Phosphate Analogs Or Sphingosine 1 Phosphate Receptor Agonists” (The Board of Trustees of the University of Illinois, priority 2010, published 2013)
# Columns and labels:
# HPAEC [1] = assay: Transendothelial electrical resistance (TER) of HPAEC; assay type: cell-based, human; conditions: 10 μM, within 60 min
# Procedure: Cells were grown at 37° C. in a 5% CO2 incubator, and passages 6 to 9 were used for experiments. Media were changed 1 day before experimentation.
# HPAEC [2] = assay: Transwell transendothelial permeability assay (FITC-dextran); assay type: cell-based, human; conditions: 1 μM (3R, 3S 25 μM), 1 h before FITC-dextran, 2-h incubation
# Procedure: As a complementary approach to further characterize the barrier-protective effects of these FTY720 analogs in vitro, the permeability of FITC-labeled dextran across the pulmonary EC monolayer was assayed in response to treatment by the FTY720 analogs. […] Data were normalized to unstimulated control. n=3 independent experiments per condition; *, p<0.01 versus unstimulated condition (see FIG. 26).
# MLC = assay: Western blotting of HPAEC lysates for phospho-MLC; assay type: cell-based, human; conditions: 5 min
# Procedure: (§1) After treatment as outlined for individual experiments, confluent HPAEC were lysed for Western blotting with phospho-MLC, pan-MLC, phospho-ERK, or pan-ERK antibodies. […] Membranes were then immunoblotted with primary antibodies (1:500-1000, 4° C., overnight) followed by secondary antibodies conjugated to horseradish peroxidase (1:5000, room temperature, 30 min) and detected with enhanced chemiluminescence (Pierce ECL or SuperSignal West Dura; Pierce Biotechnology, Rockford, Ill.) on Biomax MR film (Carestream Health, Rochester, N.Y.).
# ERK = assay: Western blotting of HPAEC lysates for phospho-ERK; assay type: cell-based, human; conditions: 5 min
# Procedure: as §1
# HPAEC [3] = assay: Intracellular calcium by Fura-2; assay type: cell-based, human; conditions: 1 μM
# Procedure: To further explore the mechanistic differences in barrier regulation, intracellular calcium responses to the FTY720 analogs, S1P, and FTY720 were examined using Fura-2 (Harbeck et al., 2006, Sci STKE 2006: p16). HPAEC plated on 25-mm glass coverslips were loaded with 1 μM Fura-2/acetoxymethyl ester (Invitrogen, Carlsbad, Calif.) for 20 min at 37° C. in KRBH5 buffer (Krebs-Ringer-bicarbonate solution containing 119 mM NaCl, 4.7 mM KCl, 2.5 mM CaCl2, 1 mM MgCl2, 1 mM KH2PO4, 25 mM NaHCO3, mM HEPES-NaOH (pH 7.4), and 5 mM glucose). After replacement of the Fura-2 loading buffer with fresh KRBH5, coverslips were placed into the specimen stage of an inverted fluorescence microscope (Nikon TE-2000U). A Nikon Super Fluor 10× objective was used for these studies. Filters (340- and 380-nm excitation and 530-nm emission) were used for Fura-2 dual excitation ratio imaging. […] Fura-2 ratios were converted to [Ca^2+] using the equation: [Ca^2+]=(Kd′[(R−Rmin)/(Rmax−R)]×Sf/Sb) (Grynkiewicz et al., 1985, J Biol Chem 260: 3440-3450), where Kd′ is the dissociation constant for Fura-2 in the cytosol (225 nM) and Sf and Sb are the measured emission intensities at 380 nm for Ca^2+-free and Ca^2+-bound Fura-2, respectively. Data summaries for all Ca^2+ measurements are expressed as the means±S.E.
# HPAEC [4] = conditions: Camp et al., 2009; cited from earlier work
# β-arrestin = conditions: 1 μM (SEW2871 10 μM; (S)-FTY720-phosphonate 1, 10, 50 μM), 5 h
# Procedure: After another 2 h-incubation with fluorescence substrate, the fluorescence intensity (blue and green channels) were detected and the blue/green emission ratio was used as the activation indicator.
# [5] = tested on: LPS-induced lung injury in C57BL/6 mice; assay: LPS-induced murine lung injury model; conditions: 1S 0.1-5.0 mg/kg i.p. single dose 1 h after LPS 2.5 mg/kg i.t.; 18 h; FTY720 0.5 mg/kg, S1P 0.026 mg/kg
# Procedure: For experiments performed in intact animals, male C57BL/6 mice (8-10 weeks) were anesthetized with intraperitoneal ketamine and acetylpromazine mixture according to the approved protocol. Escherichia coli LPS solution (2.5 mg/kg) or sterile saline was instilled intratracheally via a 20-gauge catheter. Simultaneously, mice received either FTY720 or analogs (in doses: 0.01, 0.1, 0.5, 1, and 5 mg/kg i.p.) or PBS as vehicle. The animals were allowed to recover for 18 h. BAL and lungs were collected and stored at −70° C. for evaluation of lung injury.
# Pure BAL fluids prepared for protein measurement or myeloperoxidase activity (MPO) lung homogenates were used to test albumin concentration. The assay was performed in 96-well plastic plates (Nalge Nunc A/S, Roskilde, Denmark). Plates were coated with mouse albumin (Bethyl Lab, Montgomery, Tex.), washed, and blocked. Aliquots (100-μl) of the sample or standard and 100 μl of goat anti-mouse albumin antibody (horseradish peroxidase-conjugated) (1:50,000) were then added, followed by incubation at 37° C. for 1 h. Finally, the substrate 3,3′,5,5′-tetramethylbenzidine was added for 10 min, and the reaction stopped by adding 100 μl of 2 M H2SO4. The absorbance at 450 nm was read on a kinetic microplate reader (Molecular Devices).
# Myeloperoxidase (MPO) was isolated and measured from snap-frozen right lungs as follows (see also Remick et al., 1990, Am J Pathol 136: 49-60). The right lung was homogenized in 1 ml of 50 mM potassium phosphate, pH 6.0, with 0.5% hexadecyltrimethylammonium bromide. The resulting homogenate was sonicated and then centrifuged at 12,000 g for 15 min. The supernatant was mixed 1:30 with assay buffer (100 mM potassium phosphate, pH 6.0, 0.005% H2O2, 0.168 mg/ml o-dianisidine hydrochloride), and absorbance read at 490 nm. MPO units were calculated as the change in absorbance with respect to time.
# Peripheral blood was examined by the Missouri University Research Animal Diagnostic Laboratory (Columbia, Mo.) for determination of total blood cell counts and differentials in blood samples.
# Values are shown as the mean±S.E. Data were analyzed using a standard Student's t test or one-way analysis of variance, groups were compared by Newman-Keuls test, and significance in all cases was defined at p<0.05.
# HPAEC [6] = assay: Pharmacologic inhibitor effects on barrier enhancement (TER); conditions: 1 μM agonist, 60 min
# Procedure: Endothelial cells were grown to confluence in polycarbonate wells containing evaporated gold microelectrodes (surface area, 10^−3 cm^2) in series with a large gold counter electrode (1 cm^2) connected to a phase-sensitive lock-in amplifier. Current was applied across the electrodes by a 4,000-Hz AC voltage source with amplitude of 1 V in series with a 1 MΩ resistance to approximate a constant current source (˜1 μA). The in-phase and out-of-phase voltages between the electrodes were monitored in real time with the lock-in amplifier and subsequently converted to scalar measurements of transendothelial impedance, of which resistance was the primary focus. TER was monitored for 30 minutes to establish a baseline resistance (R0) which, for bovine pulmonary endothelium, was typically between 8 to 12×10^3Ω (wells with R0<7×10^3Ω were rejected). As cells adhere and spread out on the microelectrode, TER increases (maximal at confluence), whereas cell retraction, rounding, or loss of adhesion is reflected by a decrease in TER. These measurements provide a highly sensitive biophysical assay that indicates the state of cell shape and focal adhesion. Values from each microelectrode were pooled at discrete time points and plotted versus time as the mean±SE of the mean. TER values from each microelectrode were pooled as discrete time points and plotted versus time as the mean±S.E.M.
# In this experiment, confluent HPAEC were plated on gold microelectrodes and then stimulated with 1 μM S1P, FTY720, 1R, 1S, 2R, or 2S after either a 2-h preincubation with 100 ng/ml PTX, 30-min preincubation with 200 μM genistein (Gen), or 2-h preincubation with 2 mM MβCD or their respective vehicle controls. Data were pooled from multiple TER experiments (4-10 independent experiments per condition) and expressed as percentage inhibition of maximal barrier enhancement at 60 min relative to agonist-only control.
# S1P receptor 1 (S1PR1) [7] = biological target: T1, S1P receptor 1 (S1PR1) (Homo sapiens, UniProt P21453); assay: Ubiquitination of S1PR1 in HPAEC (immunoprecipitation, ubiquitin Ab); conditions: 1 μM, 1 h
# T1 sequence (P21453 whole entry): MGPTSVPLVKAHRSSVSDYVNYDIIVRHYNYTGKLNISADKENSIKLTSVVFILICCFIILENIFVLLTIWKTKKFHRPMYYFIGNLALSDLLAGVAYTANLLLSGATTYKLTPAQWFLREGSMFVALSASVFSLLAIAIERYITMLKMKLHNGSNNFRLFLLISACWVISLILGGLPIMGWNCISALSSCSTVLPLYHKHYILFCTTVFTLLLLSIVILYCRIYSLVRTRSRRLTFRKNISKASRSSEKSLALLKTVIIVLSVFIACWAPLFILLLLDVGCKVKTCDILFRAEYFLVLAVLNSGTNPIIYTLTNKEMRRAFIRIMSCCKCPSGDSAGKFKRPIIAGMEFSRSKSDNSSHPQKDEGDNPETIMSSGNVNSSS
# From the text: S1PR1 was immunoprecipitated by S1PR1Ab, and ubiquitination of S1PR1 was detected by ubiquitin Ab.
# S1P receptor 1 (S1PR1) [8] = biological target: T1, S1P receptor 1 (S1PR1); assay: S1PR1 protein expression in HPAEC by Western blot; assay type: cell-based; set-up: Cells were collected and S1PR1 expression level was detected by Western blot; endogenous in cells; host or cells: HPAEC (human pulmonary artery endothelial cells); conditions: 1 μM (SEW2871 10 μM), 4 h
# From the text: Cells were collected and S1PR1 expression level was detected by Western blot.
smiles,measurement,setting,value
"CCCCCCCCCCCCC/C=C/[C@@H](O)[C@@H](N)COP(=O)(O)O [S1P, sphingosine 1 phosphate]",maximal TER change,HPAEC [1],somewhat barrier-disruptive
same,EC permeability to FITC-dextran vs control EC,HPAEC [2],significantly decreased permeability
same,MLC phosphorylation,MLC,increased MLC and ERK phosphorylation
same,ERK phosphorylation,ERK,increased MLC and ERK phosphorylation
same,intracellular calcium [Ca2+]i,HPAEC [3],produced a transient Ca^2+ spike
same,doses that can disrupt EC monolayer integrity,HPAEC [4],> 10 µM
same,activation of β-arrestin (blue/green emission ratio),β-arrestin,strongly activated
same,"capillary leak as total BAL protein, relative to PBS control",[5],reduction in permeability by 1S was comparable to that achieved by S1P or FTY720
same,"% Inhibition of Maximal TER Response (of Agonist-Only Control), PTX",HPAEC [6]; 2-h preincubation 100 ng/ml PTX,98.35 (±0.25) %
same,"% Inhibition of Maximal TER Response (of Agonist-Only Control), MβCD",HPAEC [6]; 2-h preincubation 2 mM MβCD,81.5 (±8.0) %
same,"% Inhibition of Maximal TER Response (of Agonist-Only Control), Gen",HPAEC [6]; 30-min preincubation 200 μM genistein,42.4 (±13.9) %
same,ubiquitination of S1PR1 at 1 h,S1P receptor 1 (S1PR1) [7],significant ubiquitination
same,S1PR1 expression level compared to control,S1P receptor 1 (S1PR1) [8],38.1%
